Measurements from patent US4241065A, “Fluoro analogs of hydrocodone and oxycodone useful as analgesics, narcotic antagonists or both” (priority 1979, dated 1980).
Read-outs that look alike come from different tables or passages of the source.

What was measured:
in vivo = experiment: in vivo; design: species or system mice (CF1 S female); conditions: sc, mouse
[1] = system: pain induced by phenylquinone (writhing syndrome); experiment: Phenylquinone writhing test (PQW), analgesic activity in mice; assay type: in vivo, mice (fasted female white mice)
Source text: Exp. Biol. Med. 95, 729 (1957). […] Rev. 11 115-145 (1947).

[2] = system: morphine-induced Straub tail in mice; experiment: Narcotic antagonist (anti-Straub tail) test in mice; assay type: in vivo; conditions: ip, 10 min; mouse, compound intraperitoneal, 10 min later 53 mg/kg morphine sulfate s.c.; compounds of the invention as hydrochloride salt; 135 mg/kg or higher = inactive; read-out: Antistraub Tail ED50 (Mouse ED50 Values)
[3] = system: Straub tail induced by morphine sulfate; experiment: Modified Straub Tail Antagonism test; assay type: in vivo, mice; conditions: Mus musculus, sc; test drug subcutaneous in 1% methyl cellulose with 1.25% Tween 80; morphine sulfate 35 mg/kg i.p. 5 min later; observed after 15 min for 5 min; read-out: ED 50 (modified Straub Tail Antagonism)
Procedure: The Straub Tail Antagonism test was modified by giving test drugs (in 1% methyl cellulose with 1.25% "Tween 80") subcutaneously, followed by intraperitoneal injection of morphine sulfate (at 35 mg/kg) 5 minutes after the test drug. […] ED 50's were calculated as above with a 95% confidence limit as described by Litchfield, J. Pharmacol. Exp. Ther. 96, 99 (1949).

[4] = subcutaneous, within 25 minutes after dosing, compounds of the invention as hydrochloride salt, 135 mg/kg or higher = inactive, read-out: Straub Tail ED50 (Mouse ED50 Values)
[5] = 0.5 h, mouse, oral, observed for 10 min commencing 30 min after administration, compounds of the invention as hydrochloride salt, 135 mg/kg or higher = inactive, read-out: PQW ED50 (Mouse ED50 Values, POW)

SMILES | ED50 at 25 min (in vivo; [4]) [mg/kg] | ED50 [1, 5] [mg/kg] | ED50 [2] [mg/kg] | other results
COc1ccc2c3c1OC1C(F)C=CC4C(C2)N(C)CCC341 (stereo not drawn) [Ayer 3,137,701, reference compound] | 63 |  |  | 
COc1ccc2c3c1O[C@H]1[C@@H](O)C=C[C@H]4[C@@H](C2)N(C)CC[C@@]341 [Codeine PO4, reference compound] | 202 |  |  | 
COc1ccc2c3c1O[C@H]1C(F)=CC[C@H]4[C@@H](C2)N(C)CC[C@]314.Cl [Compound 2, 17-Methyl-6,7-didehydro-4,5-epoxy-6-fluoro-3-methoxymorphinan Hydrochloride] |  | 8.5 |  | 
COc1ccc2c3c1O[C@H]1C(F)(F)CC[C@H]4[C@@H](C2)N(C)CC[C@@]341.Cl [Compound 4, 17-Methyl-4,5-epoxy-6,6-difluoro-3-methoxymorphinan Hydrochloride] | 10 |  | > 81 | 
CN1CC[C@]23c4c5ccc(O)c4OC2C(F)=CC[C@H]3[C@H]1C5.Cl (stereo partly drawn) [Compound 6, 17-Methyl-6,7-didehydro-4,5-epoxy-6-fluoro-3-hydroxymorphinan Hydrochloride] | 17 | 8 |  | 
COc1ccc2c3c1OC1C(F)(F)CC[C@H]4[C@@H](C2)N(CC2CCC2)CC[C@]314.Cl (stereo partly drawn) [Compound 10, 17-Cyclobutylmethyl-4,5-epoxy-6,6-difluoro-3-methoxymorphinan Hydrochloride] | > 81 |  |  | 
COc1ccc2c3c1OC1C(F)(F)CC[C@H]4[C@@H](C2)N(CC2CC2)CC[C@]314 (stereo partly drawn) [Compound 15, 17-Cyclopropylmethyl-4,5-epoxy-6,6-difluoro-3-methoxymorphinan] | > 54 |  |  | 
COc1ccc2c3c1OC1C(F)=CC[C@H]4[C@@H](C2)N(CC2CC2)CC[C@]314 (stereo partly drawn) [Compound 16, 17-Cyclopropylmethyl-6,7-didehydro-4,5-epoxy-6-fluoro-3-methoxymorphinan] | > 135 |  |  | 
Oc1ccc2c3c1OC1C(F)(F)CC[C@H]4[C@@H](C2)N(CC2CC2)CC[C@]314 (stereo partly drawn) [Compound 17, 17-Cyclopropylmethyl-4,5-epoxy-6,6-difluoro-3-hydroxymorphinan] | > 54 |  | 0.003 | ED50 ([1]; 0.5 h, mouse, oral, * peak time value (maximum activity within 30 min of administration), compounds of the invention as hydrochloride salt, read-out: PQW ED50 (Mouse ED50 Values, POW), peak time value): 2.6 mg/kg; ED50 [3]: 0.0033 mg/kg
Cl.Oc1ccc2c3c1OC1C(F)=CC[C@H]4[C@@H](C2)N(CC2CC2)CC[C@]314 (stereo partly drawn) [Compound 18, 17-Cyclopropylmethyl-6,7-didehydro-4,5-epoxy-6-fluoro-3-hydroxymorphinan Hydrochloride] | > 135 | 7.2 | 0.18 | 
COc1ccc2c3c1O[C@H]1C(F)(F)CC[C@@]4(O)[C@@H](C2)N(CC2CCC2)CC[C@]314.Cl [Compound 26, 17-Cyclobutylmethyl-4,5α-epoxy-6,6-difluoro-14β-hydroxy-3-methoxymorphinan Hydrochloride] | > 135 |  |  | 
CC(=O)Oc1ccc2c3c1O[C@H]1C(F)=CC[C@H]4[C@@H](C2)N(CC2CC2)CC[C@]314 [Compound 29, 17-Cyclopropylmethyl-6,7-didehydro-4,5α-epoxy-6-fluoro-3-acetoxymorphinan] | > 18 | 1.3 | 0.0022 | ED50 ([1]; Mus musculus, sc, 0.25 h, subcutaneous, fifteen minutes after injection, read-out: ED50 (analgesic, subcutaneous injection)): 0.0016 mg/kg
CC(=O)Oc1ccc2c3c1O[C@H]1C(F)(F)CC[C@H]4[C@@H](C2)N(CC2CC2)CC[C@@]341 [Compound 30, 17-Cyclopropylmethyl-4,5α-epoxy-6,6-difluoro-3-acetoxymorphinan] | > 18 | 2.2 | 0.0031 | 
CN1CC[C@]23c4c5ccc(O)c4O[C@H]2[C@@H](O)C=C[C@H]3[C@H]1C5 [Morphine SO4, reference compound] |  |  |  | ED50 at 25 min (in vivo; 135 mg/kg): 48 mg/kg
CC(C)=CCN1CCC2(C)c3cc(O)ccc3CC1C2C (stereo not drawn) [Pentazocine, reference compound] |  |  |  | ED50 [3]: 1.9 mg/kg
